Measurements from patent US8901118B2, “Compounds and methods for kinase modulation, and indications therefor” (Plexxikon Inc., priority 2010, dated 2014).

Tests used:
CYP3A4(BFC) = CYP3A4(BFC) (Homo sapiens, UniProt P08684); test: CYP3A4(BFC) inhibition; type: in vitro ADME; settings: CYP3A4, substrate BFC; read-out: Cyp IC50 3A4(BFC)
How it was run: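 Inhibition of human CYP3A4 with the BFC substrate was measured by fluorescence loss of the metabolized product. Compounds at 100 mM in DMSO were diluted 1 μL into 82 μL acetonitrile, then 11 μL into 204 μL cofactor mix with NADPH regeneration solutions, and serially diluted 1:1 to 10 points. Plates were incubated 30 min at 37° C and read at 409 ex/460 em to obtain IC50.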

c-Kit kinase = c-Kit kinase (Homo sapiens, UniProt P10721); test: c-Kit kinase biochemical activity assay (AlphaScreen, biotin-(E4Y)10 phosphorylation); settings: 100 μM ATP; read-out: Biochemical Inhibition IC50 Kit
How it was run: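 Phosphorylation of 30 nM biotin-(E4Y)10 by c-Kit (0.75 ng per reaction) with 100 µM ATP in HEPES pH 7.5 buffer with Mg2+/Mn2+, 5% DMSO, 1 h at room temperature; 8-point 1:2 compound dilutions. AlphaScreen detection with streptavidin donor and PY20 acceptor beads after EDTA stop. IC50 from signal versus concentration.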

Chain of CYP3A4(BFC) (P08684 whole entry): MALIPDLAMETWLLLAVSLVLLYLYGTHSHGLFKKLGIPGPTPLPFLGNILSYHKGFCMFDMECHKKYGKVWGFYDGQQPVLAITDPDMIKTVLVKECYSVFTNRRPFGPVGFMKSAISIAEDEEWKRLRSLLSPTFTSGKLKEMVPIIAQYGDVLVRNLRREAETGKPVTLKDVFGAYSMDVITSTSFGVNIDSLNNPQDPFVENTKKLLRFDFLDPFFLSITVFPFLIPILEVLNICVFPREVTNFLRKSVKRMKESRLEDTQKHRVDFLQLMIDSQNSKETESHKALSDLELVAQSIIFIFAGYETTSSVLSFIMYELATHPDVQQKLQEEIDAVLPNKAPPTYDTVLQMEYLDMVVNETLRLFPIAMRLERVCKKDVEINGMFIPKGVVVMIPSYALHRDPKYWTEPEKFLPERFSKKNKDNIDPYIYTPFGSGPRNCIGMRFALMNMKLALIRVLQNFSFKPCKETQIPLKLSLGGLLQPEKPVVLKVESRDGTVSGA
Chain of c-Kit kinase (P10721 26-976): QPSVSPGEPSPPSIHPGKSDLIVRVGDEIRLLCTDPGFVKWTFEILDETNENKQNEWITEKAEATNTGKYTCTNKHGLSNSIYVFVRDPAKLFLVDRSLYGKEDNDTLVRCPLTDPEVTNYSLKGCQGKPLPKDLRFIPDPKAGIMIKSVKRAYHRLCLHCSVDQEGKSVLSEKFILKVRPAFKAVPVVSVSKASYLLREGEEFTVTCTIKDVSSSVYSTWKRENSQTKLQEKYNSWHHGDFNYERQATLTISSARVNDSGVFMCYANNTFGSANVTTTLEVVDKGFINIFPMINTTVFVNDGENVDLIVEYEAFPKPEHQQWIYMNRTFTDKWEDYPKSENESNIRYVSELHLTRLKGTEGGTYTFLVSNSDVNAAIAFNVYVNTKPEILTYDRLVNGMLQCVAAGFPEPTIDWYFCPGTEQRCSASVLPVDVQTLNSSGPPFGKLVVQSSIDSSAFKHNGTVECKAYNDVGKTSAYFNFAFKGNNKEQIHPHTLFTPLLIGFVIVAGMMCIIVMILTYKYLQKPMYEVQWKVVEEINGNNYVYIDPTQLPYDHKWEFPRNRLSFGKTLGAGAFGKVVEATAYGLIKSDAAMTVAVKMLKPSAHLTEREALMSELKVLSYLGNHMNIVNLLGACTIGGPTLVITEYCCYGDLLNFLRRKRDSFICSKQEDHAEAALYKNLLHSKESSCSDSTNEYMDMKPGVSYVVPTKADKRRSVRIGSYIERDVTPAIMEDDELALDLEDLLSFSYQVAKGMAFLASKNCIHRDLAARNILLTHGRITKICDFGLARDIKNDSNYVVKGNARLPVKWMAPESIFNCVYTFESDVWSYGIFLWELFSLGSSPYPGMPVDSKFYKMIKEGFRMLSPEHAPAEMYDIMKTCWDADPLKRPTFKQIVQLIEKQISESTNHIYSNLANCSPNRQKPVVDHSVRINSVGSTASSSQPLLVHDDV

| SMILES | IC50 (CYP3A4(BFC)) [nM] | IC50 (c-Kit kinase) [nM] |
| --- | --- | --- |
| Clc1cnc2[nH]cc(Cc3cnc(NC4CCCCC4)nc3)c2c1 [Compound P-3001, [5-(5-chloro-1H-pyrrolo[2,3-b]pyridin-3-ylmethyl)-pyrimidin-2-yl]-cyclohexyl-amine] | > 10000 | < 1000 |
| Clc1cnc2[nH]cc(Cc3cnc(NC4CCCC4)nc3)c2c1 [Compound P-3003, [5-(5-Chloro-1H-pyrrolo[2,3-b]pyridin-3-ylmethyl)-pyrimidin-2-yl]-cyclopentyl-amine] |  | > 1000 |
| FC1(F)CCC(Nc2ncc(Cc3c[nH]c4ncc(Cl)cc34)cn2)CC1 [Compound P-3004] | > 10000 | < 1000 |
| Clc1cnc2[nH]cc(Cc3cnc(NC4CC4)nc3)c2c1 [Compound P-3005, [5-(5-Chloro-1H-pyrrolo[2,3-b]pyridin-3-ylmethyl)-pyrimidin-2-yl]-cyclopropyl-amine] |  | > 1000 |
| Clc1cnc2[nH]cc(Cc3cnc(NC4CCCCCC4)nc3)c2c1 [Compound P-3006, [5-(5-Chloro-1H-pyrrolo[2,3-b]pyridin-3-ylmethyl)-pyrimidin-2-yl]-cycloheptyl-amine] | > 10000 | < 1000 |
| COc1ccccc1Nc1ncc(Cc2c[nH]c3ncc(Cl)cc23)cn1 [Compound P-3016, [5-(5-Chloro-1H-pyrrolo[2,3-b]pyridin-3-ylmethyl)-pyrimidin-2-yl]-(2-methoxy-phenyl)-amine] |  | < 100 |
| Fc1cccc(Nc2ncc(Cc3c[nH]c4ncc(Cl)cc34)cn2)c1 [Compound P-3017, [5-(5-Chloro-1H-pyrrolo[2,3-b]pyridin-3-ylmethyl)-pyrimidin-2-yl]-(3-fluoro-phenyl)-amine] |  | < 1000 |
| COc1ccc(Nc2ncc(Cc3c[nH]c4ncc(C)cc34)cn2)cc1 [Compound P-3021, (4-Methoxy-phenyl)-[5-(5-methyl-1H-pyrrolo[2,3-b]pyridin-3-ylmethyl)-pyrimidin-2-yl]-amine] |  | < 10 |
| COc1cc(Nc2ncc(Cc3c[nH]c4ncc(C)cc34)cn2)ccc1F [Compound P-3022, (4-Fluoro-3-methoxy-phenyl)-[5-(5-methyl-1H-pyrrolo[2,3-b]pyridin-3-ylmethyl)-pyrimidin-2-yl]-amine] |  | < 100 |
| COc1ccc(Nc2ncc(Cc3c[nH]c4ncc(C)cc34)cn2)cc1F [Compound P-3023, (3-Fluoro-4-methoxy-phenyl)-[5-(5-methyl-1H-pyrrolo[2,3-b]pyridin-3-ylmethyl)-pyrimidin-2-yl]-amine] |  | < 100 |
| CCc1ccc(Nc2ncc(Cc3c[nH]c4ncc(C)cc34)cn2)cc1 [Compound P-3025, (4-Ethyl-phenyl)-[5-(5-methyl-1H-pyrrolo[2,3-b]pyridin-3-ylmethyl)-pyrimidin-2-yl]-amine] |  | < 10 |
| Cc1cnc2[nH]cc(Cc3cnc(Nc4cc(-c5ccc(F)cc5)n[nH]4)nc3)c2c1 [Compound P-3028, [5-(4-Fluoro-phenyl)-2H-pyrazol-3-yl]-[5-(5-methyl-1H-pyrrolo[2,3-b]pyridin-3-ylmethyl)-pyrimidin-2-yl]-amine] |  | < 1000 |
| Cc1cnc2[nH]cc(Cc3cnc(Nc4cc(C(C)(C)C)n[nH]4)nc3)c2c1 [Compound P-3029, (5-tert-Butyl-2H-pyrazol-3-yl)-[5-(5-methyl-1H-pyrrolo[2,3-b]pyridin-3-ylmethyl)-pyrimidin-2-yl]-amine] |  | < 1000 |
| Cc1cnc2[nH]cc(Cc3cnc(Nc4ccc(C(C)(C)C)cc4)nc3)c2c1 [Compound P-3030, (4-tert-Butyl-phenyl)-[5-(5-methyl-1H-pyrrolo[2,3-b]pyridin-3-ylmethyl)-pyrimidin-2-yl]-amine amine] |  | < 100 |
| Cc1cnc2[nH]cc(Cc3cnc(Nc4ccc(C(O)(C(F)(F)F)C(F)(F)F)cc4)nc3)c2c1 [Compound P-3031, 1,1,1,3,3,3-Hexafluoro-2-{4-[5-(5-methyl-1H-pyrrolo[2,3-b]pyridin-3-ylmethyl)-pyrimidin-2-ylamino]-phenyl}-propan-2-ol] |  | < 100 |
| Cc1cnc2[nH]cc(Cc3cnc(Nc4cc(C5CC5)n[nH]4)nc3)c2c1 [Compound P-3032, (5-Cyclopropyl-2H-pyrazol-3-yl)-[5-(5-methyl-1H-pyrrolo[2,3-b]pyridin-3-ylmethyl)-pyrimidin-2-yl]-amine] |  | < 1000 |
| Cc1cnc2[nH]cc(Cc3cnc(Nc4ccc(S(C)(=O)=O)cc4)nc3)c2c1 [Compound P-3034, (4-Methanesulfonyl-phenyl)-[5-(5-methyl-1H-pyrrolo[2,3-b]pyridin-3-ylmethyl)-pyrimidin-2-yl]-amine] |  | < 100 |
| CCn1ccc(Nc2ncc(Cc3c[nH]c4ncc(C)cc34)cn2)n1 [Compound P-3035, (1-Ethyl-1H-pyrazol-3-yl)-[5-(5-methyl-1H-pyrrolo[2,3-b]pyridin-3-ylmethyl)-pyrimidin-2-yl]-amine] |  | < 100 |
| CCn1cc(Nc2ncc(Cc3c[nH]c4ncc(C)cc34)cn2)cn1 [Compound P-3036, (1-Ethyl-1H-pyrazol-4-yl)-[5-(5-methyl-1H-pyrrolo[2,3-b]pyridin-3-ylmethyl)-pyrimidin-2-yl]-amine] |  | < 100 |
| Cc1cnc2[nH]cc(Cc3cnc(Nc4cc(C(F)(F)F)n[nH]4)nc3)c2c1 [Compound P-3037, [5-(5-Methyl-1H-pyrrolo[2,3-b]pyridin-3-ylmethyl)-pyrimidin-2-yl]-(5-trifluoromethyl-2H-pyrazol-3-yl)-amine] |  | < 1000 |
| Cc1cnc2[nH]cc(Cc3cnc(Nc4cc(OC(C)C)n[nH]4)nc3)c2c1 [Compound P-3038, (5-Isopropoxy-2H-pyrazol-3-yl)-[5-(5-methyl-1H-pyrrolo[2,3-b]pyridin-3-ylmethyl)-pyrimidin-2-yl]-amine] |  | < 1000 |

Now from value to compound:

| IC50 (CYP3A4(BFC)) [nM] | IC50 (c-Kit kinase) [nM] | SMILES |
| --- | --- | --- |
|  | < 10 | COc1ccc(Nc2ncc(Cc3c[nH]c4ncc(C)cc34)cn2)cn1 [Compound P-3020, (6-Methoxy-pyridin-3-yl)-[5-(5-methyl-1H-pyrrolo[2,3-b]pyridin-3-ylmethyl)-pyrimidin-2-yl]-amine] |
|  | < 10 | CCCOc1ccc(Nc2ncc(Cc3c[nH]c4ncc(C)cc34)cn2)cc1 [Compound P-3024, [5-(5-Methyl-1H-pyrrolo[2,3-b]pyridin-3-ylmethyl)-pyrimidin-2-yl]-(4-propoxy-phenyl)-amine] |
|  | < 10 | CCOc1ccc(Nc2ncc(Cc3c[nH]c4ncc(C)cc34)cn2)cc1 [Compound P-3026, (4-Ethoxy-phenyl)-[5-(5-methyl-1H-pyrrolo[2,3-b]pyridin-3-ylmethyl)-pyrimidin-2-yl]-amine] |
|  | < 10 | CCOc1ccc(Nc2ncc(Cc3c[nH]c4ncc(C)cc34)cn2)cn1 [Compound P-3027, (6-Ethoxy-pyridin-3-yl)-[5-(5-methyl-1H-pyrrolo[2,3-b]pyridin-3-ylmethyl)-pyrimidin-2-yl]-amine] |
|  | < 10 | CSc1ccc(Nc2ncc(Cc3c[nH]c4ncc(C)cc34)cn2)cc1 [Compound P-3033, [5-(5-Methyl-1H-pyrrolo[2,3-b]pyridin-3-ylmethyl)-pyrimidin-2-yl]-(4-methylsulfanyl-phenyl)-amine] |
|  | < 100 | Cc1ccc(Nc2ccc(Cc3c[nH]c4ncc(Cl)cc34)c(F)n2)cn1 [Compound P-3042, [5-(5-Chloro-1H-pyrrolo[2,3-b]pyridin-3-ylmethyl)-6-fluoro-pyridin-2-yl]-(6-methyl-pyridin-3-yl)-amine] |
|  | < 1000 | CCOc1ccc(Nc2ccc(C(=O)c3c[nH]c4ncc(C)cc34)c(F)n2)cn1 [Compound P-3045, [6-(6-ethoxy-pyridin-3-ylamino)-2-fluoro-pyridin-3-yl]-(5-methyl-1H-pyrrolo[2,3-b]pyridin-3-yl)-methanone] |
|  | < 100 | CCOc1ncnc2[nH]cc(Cc3ccc(Nc4ccc(Br)nc4)nc3F)c12 [Compound P-4020, (6-Bromo-pyridin-3-yl)-[5-(4-ethoxy-7H-pyrrolo[2,3-d]pyrimidin-5-ylmethyl)-6-fluoro-pyridin-2-yl]-amine] |
|  | < 1000 | CCOc1ncnc2[nH]cc(Cc3ccc(Nc4cccnc4)nc3F)c12 [Compound P-4021, [5-(4-Ethoxy-7H-pyrrolo[2,3-d]pyrimidin-5-ylmethyl)-6-fluoro-pyridin-2-yl]-pyridin-3-yl-amine] |
|  | < 1000 | CCOc1ccc(Nc2ccc(Cc3c[nH]c4ncnc(C5CC5)c34)c(F)n2)cn1 [Compound P-4026, [5-(4-Cyclopropyl-7H-pyrrolo[2,3-d]pyrimidin-5-ylmethyl)-6-fluoro-pyridin-2-yl]-(6-ethoxy-pyridin-3-yl)-amine] |
|  | < 100 | CCOc1ccc(Nc2ccc(C(=O)c3c[nH]c4ncnc(C5CC5)c34)c(F)n2)cn1 [Compound P-4027, (4-Cyclopropyl-7H-pyrrolo[2,3-d]pyrimidin-5-yl)-[6-(6-ethoxy-pyridin-3-ylamino)-2-fluoro-pyridin-3-yl]-methanone] |
|  | < 100 | CCOc1ccc(Nc2ccc(C(=O)c3c[nH]c4ncnc(C)c34)c(F)n2)cn1 [Compound P-4032, [6-(6-Ethoxy-pyridin-3-ylamino)-2-fluoro-pyridin-3-yl]-(4-methyl-7H-pyrrolo[2,3-d]pyrimidin-5-yl)-methanone] |
|  | < 1000 | Cc1cncc(Nc2ccc(Cc3c[nH]c4ncnc(C5CC5)c34)c(F)n2)c1 [Compound P-4038, [5-(4-Cyclopropyl-7H-pyrrolo[2,3-d]pyrimidin-5-ylmethyl)-6-fluoro-pyridin-2-yl]-(5-methyl-pyridin-3-yl)-amine] |
|  | < 1000 | Cc1cncc(Nc2ccc(C(=O)c3c[nH]c4ncnc(C5CC5)c34)c(F)n2)c1 [Compound P-4039, (4-Cyclopropyl-7H-pyrrolo[2,3-d]pyrimidin-5-yl)-[2-fluoro-6-(5-methyl-pyridin-3-ylamino)-pyridin-3-yl]-methanone] |
